The results in this text go back to patent US7531482B2, “Thieno-pyrimidine compounds having fungicidal activity” (Dow AgroSciences LLC, priority 2005, dated 2009).

Common to all, as to type: in vivo
Test [1] concerns Mycosphaerella graminicola=Septoria tritici. The experiment in a line: Speckled Leaf Blotch of Wheat (SEPTTR) whole-plant disease control test. The following applies: Mycosphaerella, foliar, 75 ppm applied to foliage of wheat; read-out: SEPTTR disease control.
Test [2] deals with Magnaporthe grisea=Pyricularia oryzae. Description: whole plant or invertebrate. The following applies: Pyricularia oryzae, foliar, read-out: PYRIOR disease control, 200 ppm applied to foliage of rice; inoculated one day after treatment.
For the next test, the system named is Colletotricum lagenarium. Description: Cucumber Anthracnose (COLLLA) whole-plant disease control test. The following applies: Cucumis sativus, foliar; 200 ppm applied to foliage of cucumber; inoculated one day after treatment; read-out: COLLLA disease control.
A further test relates to Leptosphaeria nodorum. Description: Glume Blotch of Wheat (LEPTNO) whole-plant disease control test. The following applies: Parastagonospora nodorum, foliar; 200 ppm applied to foliage of wheat; inoculated one day after treatment; read-out: LEPTNO disease control.
The test system of the next test is Phytophthora infestans. The experiment in a line: whole plant or invertebrate. The following applies: Phytophthora infestans, in Solanum lycopersicum, foliar, read-out: PHYTIN disease control, 200 ppm applied to foliage of tomato; inoculated one day after treatment.
Another test relates to Erysiphe cichoracaerum. The experiment in a line: Cucumber Powdery Mildew (ERYSCI) whole-plant disease control test. The following applies: Erysiphe, foliar; 200 ppm applied to foliage of cucumber; inoculated one day after treatment; read-out: ERYSCI disease control.
Test [3] concerns Puccinia recondita tritici. Description: Leaf Rust of Wheat (PUCCRT) whole-plant disease control test. The following applies: Puccinia recondita, foliar, 200 ppm applied to foliage of wheat; inoculated one day after treatment; read-out: PUCCRT disease control.

Take `O=[N+]([O-])c1ccc(Oc2ccc(CCNc3ncnc4scc(Cl)c34)cc2)nc1` [Compound 3]: the pest or weed control at 75 ppm in test [1] is 50 to 79%. Besides, the pest or weed control at 200 ppm is 80 to 100% in test [2]; 50 to 79% with Colletotricum lagenarium; 50 to 79% with Leptosphaeria nodorum; 80 to 100% in the test on Phytophthora infestans; 50 to 79% with Erysiphe cichoracaerum; 80 to 100% in test [3].
Regarding `N#Cc1ccc(Oc2ccc(CCNc3ncnc4scc(Cl)c34)cc2)nc1` [Compound 4], the pest or weed control at 75 ppm in test [1] lay within 50 to 79%. Besides, the pest or weed control at 200 ppm (in test [2]; in the test with Colletotricum lagenarium; in the test on Leptosphaeria nodorum; in the test on Phytophthora infestans; in the test on Erysiphe cichoracaerum; in test [3]) was 80 to 100% in each case.
`CC(C)(C)OC(=O)c1ccc(Oc2ccc(CCNc3ncnc4scc(Cl)c34)cc2)cc1` [Compound 6]: in test [1], the pest or weed control at 75 ppm fell in the range of 50 to 79%. Also, the pest or weed control at 200 ppm in test [2] was 80 to 100%; in the test on Colletotricum lagenarium, 50 to 79%; in the test with Leptosphaeria nodorum it was 0 to 49%; with Phytophthora infestans it was 50 to 79%; in the test with Erysiphe cichoracaerum it was 80 to 100%; in test [3], 80 to 100%.
Regarding `Clc1csc2ncnc(NCCc3ccc(Oc4ccc(Br)cn4)cc3)c12` [Compound 7, {2-[4-(5-Bromopyridin-2-yloxy)phenyl]ethyl}-(5-chlorothieno[2,3-d]pyrimidin-4-yl}amine], the pest or weed control at 75 ppm in test [1] lay within 50 to 79%. Also, the pest or weed control at 200 ppm in test [2] fell in the range of 50 to 79%; with Colletotricum lagenarium, 50 to 79%; with Leptosphaeria nodorum, 80 to 100%; in the test with Phytophthora infestans it was 0 to 49%; in the test on Erysiphe cichoracaerum, 80 to 100%; in test [3], 80 to 100%.
Regarding `FC(F)(F)c1ccnc(Oc2ccc(CCNc3ncnc4scc(Cl)c34)cc2)c1` [Compound 12], in test [1], the pest or weed control at 75 ppm lay within 50 to 79%. Moreover, the pest or weed control at 200 ppm in test [2] is 80 to 100%; in the test on Colletotricum lagenarium, 50 to 79%; in the test on Leptosphaeria nodorum, 80 to 100%; in the test with Phytophthora infestans, 50 to 79%; in the test on Erysiphe cichoracaerum it was 80 to 100%; in test [3], 80 to 100%.
As to `N#Cc1ccnc(Oc2ccc(CCNc3ncnc4scc(Cl)c34)cc2)c1` [Compound 13], in test [1], the pest or weed control at 75 ppm was 50 to 79%. Besides, the pest or weed control at 200 ppm in test [2] lay in the range of 80 to 100%; in the test on Colletotricum lagenarium, 50 to 79%; in the test with Leptosphaeria nodorum it was 80 to 100%; with Phytophthora infestans, 50 to 79%; with Erysiphe cichoracaerum, 80 to 100%; in test [3], 80 to 100%.
`O=C(Oc1ccc(CCNc2ncnc3scc(Cl)c23)cc1)c1ccccn1` [Compound 14]: the pest or weed control at 75 ppm in test [1] fell in the range of 0 to 49%. Moreover, the pest or weed control at 200 ppm lay within 80 to 100% in test [2]; 0 to 49% with Colletotricum lagenarium; 50 to 79% with Leptosphaeria nodorum; 0 to 49% in the test with Phytophthora infestans; 0 to 49% in the test with Erysiphe cichoracaerum; 80 to 100% in test [3].
For `O=C(Oc1ccc(CCNc2ncnc3scc(Cl)c23)cc1)c1ccc(Cl)nc1` [Compound 15], the pest or weed control at 75 ppm in test [1] lay within 0 to 49%. For the same molecule, the pest or weed control at 200 ppm lay in the range of 80 to 100% in test [2]; 0 to 49% with Colletotricum lagenarium; 50 to 79% in the test on Leptosphaeria nodorum; 0 to 49% in the test on Phytophthora infestans; 0 to 49% with Erysiphe cichoracaerum; 80 to 100% in test [3].
Turning to `Clc1csc2ncnc(NCCc3ccc(Oc4ncc(Br)s4)cc3)c12` [Compound 16], in test [1], the pest or weed control at 75 ppm fell in the range of 80 to 100%. In addition, the pest or weed control at 200 ppm in test [2] lay within 80 to 100%; with Colletotricum lagenarium it was 0 to 49%; in the test with Leptosphaeria nodorum, 0 to 49%; with Phytophthora infestans, 80 to 100%; in the test on Erysiphe cichoracaerum it was 50 to 79%; in test [3], 80 to 100%.
Regarding `Clc1csc2ncnc(NCCc3ccc(Oc4ncccn4)cc3)c12` [Compound 17], in test [1], the pest or weed control at 75 ppm lay within 50 to 79%. For the same molecule, the pest or weed control at 200 ppm in test [2] is 80 to 100%; in the test on Colletotricum lagenarium, 0 to 49%; with Leptosphaeria nodorum, 50 to 79%; in the test with Phytophthora infestans, 80 to 100%; with Erysiphe cichoracaerum it was 50 to 79%; in test [3], 80 to 100%.
For `Clc1csc2ncnc(NCCc3ccc(Oc4ccccn4)cc3)c12` [Compound 18], the pest or weed control at 75 ppm in test [1] is 50 to 79%. Further, the pest or weed control at 200 ppm in test [2] lay within 80 to 100%; in the test with Colletotricum lagenarium, 0 to 49%; in the test on Leptosphaeria nodorum, 0 to 49%; with Phytophthora infestans it was 80 to 100%; in the test with Erysiphe cichoracaerum, 80 to 100%; in test [3], 80 to 100%.
Take `[O-][n+]1ccccc1Oc1ccc(CCNc2ncnc3scc(Cl)c23)cc1` [Compound 19]: in test [1], the pest or weed control at 75 ppm lay in the range of 50 to 79%. For the same molecule, the pest or weed control at 200 ppm in test [2] lay in the range of 80 to 100%; with Colletotricum lagenarium, 0 to 49%; in the test with Leptosphaeria nodorum it was 0 to 49%; in the test with Phytophthora infestans, 80 to 100%; in the test with Erysiphe cichoracaerum, 50 to 79%; in test [3], 80 to 100%.
Take `NC(=O)c1ccc(Oc2ccc(CCNc3ncnc4scc(Cl)c34)cc2)nc1` [Compound 21]: the pest or weed control at 75 ppm in test [1] was 0 to 49%. Moreover, the pest or weed control at 200 ppm lay within 0 to 49% in test [2]; 0 to 49% with Colletotricum lagenarium; 0 to 49% in the test on Leptosphaeria nodorum; 0 to 49% with Phytophthora infestans; 0 to 49% with Erysiphe cichoracaerum; 80 to 100% in test [3].
`N#Cc1cc[n+]([O-])c(Oc2ccc(CCNc3ncnc4scc(Cl)c34)cc2)c1` [Compound 22]: the pest or weed control at 75 ppm in test [1] was in the range of 0 to 49%. The pest or weed control at 200 ppm in test [2] was 80 to 100%; in the test with Colletotricum lagenarium, 50 to 79%; in the test on Leptosphaeria nodorum it was 50 to 79%; in the test with Phytophthora infestans, 50 to 79%; with Erysiphe cichoracaerum, 50 to 79%; in test [3], 80 to 100%.
Take `CCOC(=O)c1ccc(Oc2ccc(CCNc3ncnc4scc(Cl)c34)cc2)nc1` [Compound 23]: the pest or weed control at 75 ppm in test [1] was in the range of 0 to 49%. Moreover, the pest or weed control at 200 ppm in test [2] was in the range of 50 to 79%; with Colletotricum lagenarium, 0 to 49%; with Leptosphaeria nodorum, 0 to 49%; in the test on Phytophthora infestans it was 50 to 79%; in the test with Erysiphe cichoracaerum, 0 to 49%; in test [3], 80 to 100%.
As to `O=Cc1ccc(Oc2ccc(CCNc3ncnc4scc(Cl)c34)cc2)nc1` [Compound 24], the pest or weed control at 75 ppm in test [1] is 50 to 79%. Besides, the pest or weed control at 200 ppm in test [2] was in the range of 80 to 100%; with Colletotricum lagenarium, 50 to 79%; in the test on Leptosphaeria nodorum, 0 to 49%; in the test with Phytophthora infestans it was 50 to 79%; in the test with Erysiphe cichoracaerum, 0 to 49%; in test [3], 80 to 100%.
